The values that follow come from US4782058A, “1,3,4,6,7,11b-Hexahydro-6-phenyl-2H-pyrazino-(2,1-a)isoquinolines, for anti-histamine or anti-depression treatment” (Pennwalt Corporation, priority 1987, dated 1988).

Structures can show the parent of a compound that is named as a salt.

One assay has as its target T1, histamine H1 -receptors (Rattus norvegicus, UniProt P31390).
T1 construct: homogenated rat cerebral tissue; from tissue; host or cells: rat cerebral tissue, homogenate
In words: inhibition of binding of 3H-pyrilamine to homogenated rat cerebral tissue. The following applies: 3H-pyrilamine binding, read-out: IC50 (50% inhibitory concentration). The protocol:
That compound was assayed for anti-histamine activity by measuring its ability to inhibit the binding of 3H-pyrilamine to homogenated rat cerebral tissue. (3H-Pyrilamine is a radioligand that is used to characterize histamine H1 -receptors in brain tissue.) Assay conditions were essentially those of V. T. Tran et al, Proc. Nat'l. Acad. Sci. (USA) 75, p. 6290-6294 (1978).

Assay [1] has as its system tetrabenazine-induced ptosis. In words: inhibition of tetrabenazine-induced ptosis in mice. The assay is classed as in vivo. To be noted: Mus musculus, po; male CF-1 mice, orally administered 15 min before i.v. tetrabenazine; ptosis rated 30-150 min; read-out: lowest active dose (LAD). On the procedure: A particularly useful compound with respect to antidepressant activity is the title compound of Example 1 (i.e., the cis-diastereoisomeric form of the compound of formula I in which R1 is methyl, R2 is methoxy, and R3 is hydrogen). That compound was tested for antidepressant activity by measuring its ability to inhibit tetrabenazine-induced ptosis in mice.
Male CF-1 mice weighing 19-32 grams were housed for a minimum of 5 days under a 12 hour light/dark (6 am/6 pm) schedule at 70°-74° F. and relative humidity of 30-50%. Food and water were available ad libitum until the time of administration of test compounds. Mice in groups of ten were orally administered (via gastric intubation) either the control solution (distilled water, 10 ml/kg) or the test compound. The test compound was either dissolved in distilled water or suspended in distilled water containing a drop of polyoxyethylene 20 sorbitan monooleate, sold under the trademark, Tween 80. After fifteen minutes, a dose of 10 ml/kg of a solution of tetrabenazine (as its methane sulfonate salt) in distilled water (4 mg/ml) was administered by intravenous injection. The degree of palpebral closure (ptosis) was determined 30, 60, 90, 120, and 150 minutes after administration of the tetrabenazine solution. […]

T1 sequence (P31390 whole entry): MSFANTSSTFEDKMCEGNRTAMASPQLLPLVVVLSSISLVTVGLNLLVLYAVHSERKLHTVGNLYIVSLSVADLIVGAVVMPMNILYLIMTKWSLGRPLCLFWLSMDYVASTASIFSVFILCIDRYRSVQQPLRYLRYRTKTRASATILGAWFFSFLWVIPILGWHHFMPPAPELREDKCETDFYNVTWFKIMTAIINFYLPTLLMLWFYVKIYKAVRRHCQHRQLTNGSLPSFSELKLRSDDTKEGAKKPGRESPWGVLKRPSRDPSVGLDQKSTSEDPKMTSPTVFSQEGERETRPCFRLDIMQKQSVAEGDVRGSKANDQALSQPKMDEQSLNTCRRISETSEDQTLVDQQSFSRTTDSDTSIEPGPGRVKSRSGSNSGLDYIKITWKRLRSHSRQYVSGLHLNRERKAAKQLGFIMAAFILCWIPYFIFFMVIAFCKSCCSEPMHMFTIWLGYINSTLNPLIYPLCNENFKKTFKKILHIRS

With `CN1CCN2[C@@H](c3ccccc3)Cc3cc(O)ccc3[C@@H]2C1` (relative stereo) [Example 2, cis-1,3,4,6,7,11b-hexahydro-9-hydroxy-2-methyl-6-phenyl-2H-pyrazino[2,1-a]isoquinoline dihydrobromide], the IC50 on histamine H1 -receptors worked out at 250 nM. For the compound `COc1ccc2c(c1)C[C@@H](c1ccccc1)N1CCN(C)C[C@@H]21` (relative stereo) [Example 1, cis-1,3,4,6,7,11b-hexahydro-9-methoxy-2-methyl-6-phenyl-2H-pyrazino[2,1-a]isoquinoline dihyrochloride], the minimal effective dose in assay [1] came to 20 mg/kg.
